pEC50: −log10 of the molar value.
Tested on: HIV-1 (H9IIIB strain)
Experiment: Cell-Based HIV Infection Assay Using a Reporter (MT4-GFP cells)
Conditions: Human immunodeficiency virus 1, inflection point (IP) of viral growth inhibition; MT4-GFP cells infected with HIV-1 H9IIIB; 50% normal human serum; mean of at least two independent experiments; read-out: Cell Based IP (50% NHS)
Method: Cell-Based HIV Infection Assay Using a Reporter (“Cell-Based”):
MT4-GFP cells contain a stably integrated HIV long terminal repeat promoter directing the transcription of green fluorescent protein (GFP). When HIV infects the cell, GFP is produced and the cell becomes green. MT4-GFP cells (250,000 cells/mL) were bulk-infected with HIV-1 (H9IIIB strain) at low multiplicity of infection (MOI) in RPM 1640 media, supplemented with 10% FBS for 24 h. Cells were then washed once in RPMI 1640 plus 10% FBS and resuspended in RPMI plus 50% normal human serum (NHS). Test compounds were serial-diluted in DMSO using an ECHO liquid dispenser. A control well included a combination of three HIV drugs (an inhibitor of HIV protease, integrase strand transfer and a non-nucleoside reverse transcriptase inhibitor; triple drug). The infected MT4-GFP cells were added to a 384-well poly-D-lysine coated black plate with clear bottom in which the diluted test compounds were placed. The cells were seeded in the plate at 8,000 cells per well and the final DMSO concentration was 0.4%. Infected cells were quantified at both 24 and 48 h post incubation using an Acumen eX3 plate reader. Viral reproductive ratio (R0) was determined using the number of infected cells at 48 h divided by the number of infected cells at 24 h. Percent viral growth inhibition was calculated by [1−(R−Rtripledrug)/(RDMSO−Rtripledrug)]*100. Compound potency inflection point (IP) was determined with use of a 4-parameter dose response curve analysis.
Data shown in the table reflects the mean of at least two independent experiments.

SMILES	pEC50
N[C@H](C(=O)Nc1cccc(F)c1CCC1CNC2CCCS(=O)(=O)N1C2)[C@@H](c1ccc(F)cc1)c1ccc(C2CC2)cc1 (stereo partly drawn) [Example 59, (βR)-4-cyclopropyl-N-{2-[2-(2,2-dioxido-2-thia-1,7-diazabicyclo[4.3.1]dec-9-yl)ethyl]-3-fluorophenyl}-β-(4-fluorophenyl)-L-phenylalaninamide]	7.80
CC1(C)C[C@H]([C@H](c2ccc(Cl)cc2)[C@H](N)C(=O)Nc2cccc(F)c2CC[C@H]2CN[C@@H]3CCS(=O)(=O)N2C3)CCO1 [Example 275, (2S,3R)-2-amino-3-(4-chlorophenyl)-3-((R)-2,2-dimethyltetrahydro-2H-pyran-4-yl)-N-(2-(2-((5R,8S)-2,2-dioxido-2-thia-1,6-diazabicyclo[3.3.1]nonan-8-yl)ethyl)-3-fluorophenyl)propanamide]	7.60
CO[C@H]1C[C@@H]([C@H](c2ccc(F)cc2)[C@H](N)C(=O)Nc2cccc(F)c2CC[C@H]2CN[C@@H]3CCCS(=O)(=O)N2C3)C1 [Example 106, (βR)-N-(2-{2-[(6R,9S)-2,2-dioxido-2-thia-1,7-diazabicyclo[4.3.1]dec-9-yl]ethyl}-3-fluorophenyl)-4-fluoro-β-[(1s,3S)-3-methoxycyclobutyl]-L-phenylalaninamide]	6.96
CC1(C)CC([C@H](c2ccc(Cl)cc2)[C@H](NC(=O)CN)C(=O)N[C@H]2CCC[C@@H]2CC[C@H]2CN[C@@H]3CCCS(=O)(=O)N2C3)CCO1 (stereo partly drawn) [Example 232, glycyl-(βR)-4-chloro-β-(2,2-dimelhyltetrahydro-2H-pyran-4-yl)-N-[(1S,2R)-2-{2-[(6R,9S)-2,2-dioxido-2-thia-1,7-diazabicyclo[4.3.1]dec-9-yl]ethyl}cyclopentyl]-L-phenylalaninamide]	5.60
CCOC[C@H]1CC[C@H]([C@H](c2ccc(Cl)cc2)[C@H](N)C(=O)Nc2cncc(F)c2CC[C@H]2CN[C@@H]3CCCS(=O)(=O)N2C3)CC1 [Example 258, (βR)-4-chloro-N-(4-{2-[(6R,9S)-2,2-dioxido-2-thia-1,7-diazabicyclo[4.3.1]dec-9-yl]ethyl}-5-fluoropyridin-3-yl)-β-[(1r,4R)-4-(ethoxymethyl)cyclohexyl]-L-phenylalaninamide]	8.47
COC(=O)N[C@H](C(=O)Nc1cncc(F)c1CC[C@H]1CN[C@@H]2CCCS(=O)(=O)N1C2)[C@@H](c1ccc(Cl)cc1)[C@H]1CC[C@H](C(F)(F)F)CC1 [Example 256, methyl {(1S,2R)-2-(4-chlorophenyl)-1-[(4-{2-[(6R,9S)-2,2-dioxido-2-thia-1,7-diazabicyclo[4.3.1]dec-9-yl]ethyl}-5-fluoropyridin-3-yl)carbamoyl]-2-[(1r,4R)-4-(trifluoromethyl)cyclohexyl]ethyl}carbamate]	8.09
CCC(CC)[C@H](c1ccc(Cl)cc1)[C@H](NC(=O)OC)C(=O)Nc1cccc(F)c1CCC1CNC2CCCS(=O)(=O)N1C2 (stereo partly drawn) [Example 71, methyl [(1S,2R)-2-(4-chlorophenyl)-1-({2-[2-(2,2-dioxido-2-thia-1,7-diazabicyclo[4.3.1]dec-9-yl)ethyl]-3-fluorophenyl}carbamoyl)-3-ethylpentyl]carbamate]	7.39
CC[C@H](C)N[C@H](C(=O)N[C@H]1CCC[C@@H]1CC[C@H]1CN[C@@H]2CCCS(=O)(=O)N1C2)[C@@H](c1ccc(Cl)cc1)C1CCOC(C)(C)C1 (stereo partly drawn) [Example 183, (βR)-4-chloro-β-(2,2-dimethyltetrahydro-2H-pyran-4-yl)-N-[(1S,2R)-2-{2-[(6R,9S)-2,2-dioxido-2-thia-1,7-diazabicyclo[4.3.1]dec-9-yl]ethyl}cyclopentyl]-Nα-[(1S)-1-methylpropyl]-L-phenylalaninamide]	5.89

From patent publication US10138255B2, “Piperazine derivatives as HIV protease inhibitors” (Merck Sharp & Dohme Corp., priority 2014, dated 2018)
